# Source: paper PMC10011554, “BET inhibitor trotabresib in heavily pretreated patients with solid tumors and diffuse large B-cell lymphomas” (Nature Communications, 2023)
# Test: Adverse events, DLTs, MTD and RP2D in phase I study CC-90010-ST-001 (NCI CTCAE v4.03)
# Type: in vivo
# Conditions: for TRAE: ALT increased / TRAE: Anemia / TRAE: Any TRAE / TRAE: Asthenia / TRAE: Decreased appetite / TRAE: Dehydration / TRAE: Dermatitis acneiform / TRAE: Diarrhoea / TRAE: Dysgeusia / TRAE: Fatigue / TRAE: Hyperglycemia / TRAE: Hypertension / TRAE: Hyponatremia / TRAE: Hypophosphatemia / TRAE: Nausea / TRAE: Neutropenia / TRAE: Platelet count decreased / TRAE: Stomatitis / TRAE: Thrombocytopenia / TRAE: Vomiting: part A 45 mg/day
# Method: The primary endpoints of the study were the safety and tolerability of trotabresib, as well as the MTD and/or RP2D of trotabresib. Safety was assessed using the National Cancer Institute Common Terminology Criteria for Adverse Events v4.03[53].
# The decision to evaluate additional subjects within a dose cohort, a higher dose cohort, intermediate dose cohorts, smaller dose increments, alternate dosing schedules, or declare an MTD will also be determined by the SRC, based on their review of clinical and laboratory safety […]
# 7.2.4. Definition of a Subject Evaluable for DLT
# After the first dose is administered in any cohort during dose escalation, subjects in each cohort […]
# more than one subject per day will be enrolled in a given dose escalation cohort.
# A subject evaluable for DLT is defined as one that: […]
# without experiencing a DLT,
# Subjects non-evaluable for DLT will be replaced. Additional subjects within any dose cohort may be enrolled at the discretion of the SRC. Intra-subject dose escalation will not be allowed during the DLT assessment period.
# 7.2.5. Definition of Maximum Tolerated Dose (MTD) […]
# of MTD is described in Section 7.2.2.
# A variable dose cohort (eg, less frequent dosing) may be evaluated to accurately determine the MTD at the discretion of the SRC.
# 7.2.6. Definition of Dose-Limiting Toxicity (DLT) […]
# used as a guide for the grading of severity of adverse events. A DLT is defined as any of the following toxicities occurring within the DLT assessment unless the event can clearly be […]
# Do se-limiting toxicities are described below:
# • Hyperglycemia meeting any of the following criteria:
# − Grade 3 or greater fasting hyperglycemia (> 250 mg/dL) lasting > 4 days despite optimal medical treatment
# (1 picture or pasted object on this page, not shown here)
# − Hyperglycemia associated with diabetic ketoacidosis or nonketotic hyperosmolar coma regardless of glucose level
# − Hyperglycemia that necessitates dose reduction despite dose interruption and resolution to ≤ grade 1 hyperglycemia within two weeks as described in […]
# • Any Grade 4 non-hematologic toxicity of any duration
# • Any non-hematologic toxicity Grade ≥ 3 EXCEPT for:
# − Grade 3 diarrhea, nausea, or vomiting of ≤ 3 days duration (with optimal medical […]
# − Grade 3 rash of the acneiform, pustular or maculopapular type which resolves to […]
# level with resumption of study drug at the same dose (with optimal medical […]
# − Grade 3 fatigue which resolves to Grade ≤ 2 within 7 days of study drug […]
# the same dose (with optimal medical management).
# • Hematological toxicities as follows:
# − Grade 4 neutropenia lasting > 7 days
# − Grade 4 thrombocytopenia lasting > 7 days, Grade ≥ 3 thrombocytopenia with clinically significant bleeding
# • Any AE, Grade ≥ 2 not specified or exempt above, unless clearly determined to be unrelated to the drug, necessitating dose-level reduction during Cycle 1.
# Isolated laboratory changes without associated clinical signs or symptoms (eg, hypomagnesemia, hypermagnesemia, hypoalbuminemia, hypophosphatemia, lymphocyte count increased or decreased) may not be included in this definition. These findings will be discussed and reviewed […]
# 7.2.7. Criteria for Dose Escalation in the Next Cohort of Subjects
# During Part A, the dose escalation criteria are described in Section 7.2.2.
# 7.2.8. Definition of Stopping Criteria
# During Part A, the dose escalation stopping rules are in Section 7.2.2.
# 7.2.9. Permitted Study Drug Adjustments
# Dose reductions are permitted in any cycle, including Cycle 1.
# • Dose reductions that occur in Cycle 1 during dose escalation will constitute DLT as […]
# [1] = part A (N = 69), 02 Dec 2019 cutoff
structure (smiles),measurement,setting,value
Cn1cc(-c2cc(S(C)(=O)=O)ccc2OCC2CC2)c2ccccc2c1=O [trotabresib],MTD,"Schedule A, 3-days-on/11-days-off (180 mg per 28-day cycle)",30 mg/dose
same,MTD,"Schedule B, 4-days-on/24-days-off (180 mg per 28-day cycle)",45 mg/dose
same,MTD,"Schedule C, 2-days-on/5-days-off (120 mg per 28-day cycle)",15 mg/dose
same,dose intensity below which well tolerated,"human, in vivo",below 200 mg per 28-day cycle
same,further grade 3 and 4 TRAEs reported in one patient each,overall part A population,"Grade 3 essential hypertension, hypokalemia, lipase increased, liver function test abnormal, presyncope, skin hemorrhage, and grade 4 blood creatinine phosphokinase increased, diabetes mellitus, and inappropriate antidiuretic hormone secretion"
same,TRAE: ALT increased,any grade,0%
same,TRAE: Anemia,any grade,28.57%
same,TRAE: Any TRAE,any grade,85.71%
same,TRAE: Asthenia,any grade,14.29%
same,TRAE: Decreased appetite,any grade,0%
same,TRAE: Dehydration,any grade,0%
same,TRAE: Dermatitis acneiform,any grade,0%
same,TRAE: Diarrhoea,any grade,42.86%
same,TRAE: Dysgeusia,any grade,14.29%
same,TRAE: Fatigue,any grade,0%
same,TRAE: Hyperglycemia,any grade,0%
same,TRAE: Hypertension,any grade,0%
same,TRAE: Hyponatremia,any grade,0%
same,TRAE: Hypophosphatemia,any grade,0%
same,TRAE: Nausea,any grade,28.57%
same,TRAE: Neutropenia,any grade,0%
same,TRAE: Platelet count decreased,any grade,0%
same,TRAE: Stomatitis,any grade,42.86%
same,TRAE: Thrombocytopenia,any grade,71.43%
same,TRAE: Vomiting,any grade,14.29%
same,TRAE: ALT increased,grade 3,0%
same,TRAE: Anemia,grade 3,14.29%
same,TRAE: Any TRAE,grade 3,14.29%
same,TRAE: Asthenia,grade 3,0%
same,TRAE: Decreased appetite,grade 3,0%
same,TRAE: Dehydration,grade 3,0%
same,TRAE: Dermatitis acneiform,grade 3,0%
same,TRAE: Diarrhoea,grade 3,0%
same,TRAE: Dysgeusia,grade 3,0%
same,TRAE: Fatigue,grade 3,0%
same,TRAE: Hyperglycemia,grade 3,0%
same,TRAE: Hypertension,grade 3,0%
same,TRAE: Hyponatremia,grade 3,0%
same,TRAE: Hypophosphatemia,grade 3,0%
same,TRAE: Nausea,grade 3,0%
same,TRAE: Neutropenia,grade 3,0%
same,TRAE: Platelet count decreased,grade 3,0%
same,TRAE: Stomatitis,grade 3,0%
same,TRAE: Thrombocytopenia,grade 3,0%
same,TRAE: Vomiting,grade 3,0%
same,TRAE: ALT increased,grade 4,0%
same,TRAE: Anemia,grade 4,0%
same,TRAE: Any TRAE,grade 4,14.29%
same,TRAE: Asthenia,grade 4,0%
same,TRAE: Decreased appetite,grade 4,0%
same,TRAE: Dehydration,grade 4,0%
same,TRAE: Dermatitis acneiform,grade 4,0%
same,TRAE: Diarrhoea,grade 4,0%
same,TRAE: Dysgeusia,grade 4,0%
same,TRAE: Fatigue,grade 4,0%
same,TRAE: Hyperglycemia,grade 4,0%
same,TRAE: Hypertension,grade 4,0%
same,TRAE: Hyponatremia,grade 4,0%
same,TRAE: Hypophosphatemia,grade 4,0%
same,TRAE: Nausea,grade 4,0%
same,TRAE: Neutropenia,grade 4,0%
same,TRAE: Platelet count decreased,grade 4,0%
same,TRAE: Stomatitis,grade 4,0%
same,TRAE: Thrombocytopenia,grade 4,14.29%
same,TRAE: Vomiting,grade 4,0%
same,subjects with at least one DLT,part A (N = 69),6 subjects
same,Grade 3 or 4 TEAE anemia,[1],4.3%
same,Grade 3 or 4 TEAE arthralgia,[1],2.9%
same,Grade 3 or 4 TEAE asthenia,[1],5.8%
same,Grade 3 or 4 TEAE back pain,[1],2.9%
same,Grade 3 or 4 TEAE cognitive disorder,[1],2.9%
same,Grade 3 or 4 TEAE decreased performance status,[1],2.9%
same,Grade 3 or 4 TEAE decreased platelet count,[1],2.9%
same,Grade 3 or 4 TEAE dyspnea,[1],2.9%
same,Grade 3 or 4 TEAE fatigue,[1],2.9%
same,Grade 3 or 4 TEAE hyperglycemia,[1],5.8%
same,Grade 3 or 4 TEAE hypokalemia,[1],2.9%
same,Grade 3 or 4 TEAE hyponatremia,[1],2.9%
same,Grade 3 or 4 TEAE increased ALT,[1],4.3%
same,Grade 3 or 4 TEAE thrombocytopenia,[1],13.0%
same,TEAE abdominal pain,[1],14.5%
same,TEAE anemia,[1],15.9%
same,TEAE asthenia,[1],39.1%
same,TEAE constipation,[1],13.0%
same,TEAE decreased appetite,[1],24.6%
same,TEAE dermatitis acneiform,[1],13.0%
same,TEAE diarrhea,[1],42.0%
